Data taken from US20080121012A1, “Electrode Calibration” (priority 2004, published 2008).

Columns and labels:
[1] = cited from earlier work
[2] = Detection of CO release using the myoglobin assay (conversion of deoxy-Mb to MbCO); format: physicochemical
Experimental: The release of CO from CORM-A1 (Na2[H3BCOO]) was assessed spectrophotometrically by measuring the conversion of deoxymyoglobin (deoxy-Mb) to carbonmonoxy myoglobin (MbCO) in a manner previously reported (refs. 3, 4, 5). A small aliquot of CORM-A1 (60 μM final concentration) was added to 1 ml deoxy-Mb (≈53 μM) in phosphate buffer and changes in the Mb spectra were recorded over time. The amount of MbCO formed was quantified by measuring the absorbance at 540 nm (extinction coefficient=[…]). In order to examine the effect of pH on the rate of CO liberation from CORM-A1, experiments were conducted using solutions of myoglobin in 0.04 M phosphate buffer prepared at different pHs (7.4, 7.0, 6.5 and 5.5). The amount of MbCO formed was plotted over time and the half-life of CORM-A1 at different pHs and temperatures was calculated from the fitted curves.
The conversion of deoxy-Mb to MbCO can be followed over time by measuring the changes in the absorption spectra of this protein. […] The Mb appears to be fully saturated 2 h after addition of CORM-A1 (see curve with filled diamonds in FIG. 1A). […] Specifically, from the fitted curves shown in FIG. 2A we can calculate that the half-lives of CORM-A1 at 37° C. are as follows: 21 min at pH=7.4; 7.1 min at pH=7.0; 3.3 min at pH=6.5; and 2.5 min at pH=5.5.

[3] = Detection of CO release using an amperometric CO sensor; format: physicochemical; conditions: 20 μM; for dissociation rate constant of CO / half-life: 37° C.
Excerpt: The release of CO from CORM-A1 was also detected using a prototype electrode purchased from World Precision Instrument (Stevenage, Herts, UK). This CO electrode is a membrane-covered amperometric sensor which has been designed on a basic operating principle similar to the nitric oxide (NO) sensor (ISO-NOP series, World Precision Instruments). The CO sensor can be connected to the ISO-NO Mark II meter for detection of the current signals providing that the poise potential is set to a different value (900 mV for CO as opposed to 860 mV for NO). In principle, CO diffuses through the gas permeable membrane and is then oxidized to CO2 on the working electrode. This oxidation creates a current whose magnitude can be related directly to the concentration of CO in solution. The CO sensor was used to generate standard curves and calculate the rates of CO release from CORM-A1 at different pHs and temperatures. The electrode was immersed into the solutions at different pHs and equilibrated for 30 min prior to addition of CORM-A1. For the experiments conducted at 37, 30, 25 and 20° C., the solutions were maintained at the desired temperature using a Grant W6 thermostat (Cambridge, England).
CORM-A1 was also tested for its ability to liberate CO using an amperometric electrode sensitive to CO. […] A standard curve generated at pH=5.5 using CORM-A1 in a range between 10 and 50 μM indicated a good linear correlation (R^2=0.998) between the concentrations used and the electrode response (FIG. 3B). Therefore, a concentration of 20 μM CORM-A1 was then used to calculate the rate of CO dissociation from CORM-A1 at different pHs and temperatures. […] Specifically, from the curves shown in FIG. 3D, we can calculate that the initial rate of CO release at pH=5.5 is 6.84 μM/min at 37° C., 3.83 μM/min at 30° C., 2.16 μM/min at 25° C. and 1.22 μM/min at 20° C. Thus, the spontaneous liberation of CO from CORM-A1 in aqueous solutions is both pH- and temperature-dependent.

[C-]#[O+].[C-]#[O+].[C-]#[O+].[C-]#[O+].[C-]#[O+].[C-]#[O+].[Cl][Ru][Cl].[Cl][Ru][Cl] [CORM-2, tricarbonyldichlororuthenium(II) dimer]
solubility [1]: soluble only in organic solvents

sodium boranocarbonate [CORM-A1]
time until Mb is fully saturated with CO ([2]; 60 μM, 37° C., pH=7.4): 2 h
mole of CO formed per mole of compound ([2]; pH=5.5, standard curve): one
dissociation rate constant of CO ([3]; pH=4.0): 0.011 s⁻¹
dissociation rate constant of CO ([3]; pH=5.5): 0.0058 s⁻¹
half-life ([3]; pH=5.5): 1.96 min
dissociation rate constant of CO ([3]; pH=7.4): 0.00055 s⁻¹
half-life ([3]; pH=7.4): 21.06 min
initial rate of CO release ([3]; pH=5.5, 20° C.): 1.22 µM/min
initial rate of CO release ([3]; pH=5.5, 25° C.): 2.16 µM/min
initial rate of CO release ([3]; pH=5.5, 30° C.): 3.83 µM/min
initial rate of CO release ([3]; pH=5.5, 37° C.): 6.84 µM/min

[C-]#[O+].[C-]#[O+].[C-]#[O+].[C-]#[O+].[C-]#[O+].[C-]#[O+].[C-]#[O+].[C-]#[O+].[C-]#[O+].[C-]#[O+].[Mn].[Mn] [CORM-1, manganese decacarbonyl]
solubility [1]: soluble only in organic solvents
